Assay results: ChEMBL document CHEMBL5465560, “Selectivity Literature for EUbOPEN Chemogenomic Library” (2024)

Tests used:
[1] = target: T1, Ephrin type-A receptor 8 (Homo sapiens) (UniProt P29322); experiment: Selectivity interaction (KinomeScan (DiscoverX)) EUB0000229b EPHA8; details: at 10 µM
T1 sequence (whole entry): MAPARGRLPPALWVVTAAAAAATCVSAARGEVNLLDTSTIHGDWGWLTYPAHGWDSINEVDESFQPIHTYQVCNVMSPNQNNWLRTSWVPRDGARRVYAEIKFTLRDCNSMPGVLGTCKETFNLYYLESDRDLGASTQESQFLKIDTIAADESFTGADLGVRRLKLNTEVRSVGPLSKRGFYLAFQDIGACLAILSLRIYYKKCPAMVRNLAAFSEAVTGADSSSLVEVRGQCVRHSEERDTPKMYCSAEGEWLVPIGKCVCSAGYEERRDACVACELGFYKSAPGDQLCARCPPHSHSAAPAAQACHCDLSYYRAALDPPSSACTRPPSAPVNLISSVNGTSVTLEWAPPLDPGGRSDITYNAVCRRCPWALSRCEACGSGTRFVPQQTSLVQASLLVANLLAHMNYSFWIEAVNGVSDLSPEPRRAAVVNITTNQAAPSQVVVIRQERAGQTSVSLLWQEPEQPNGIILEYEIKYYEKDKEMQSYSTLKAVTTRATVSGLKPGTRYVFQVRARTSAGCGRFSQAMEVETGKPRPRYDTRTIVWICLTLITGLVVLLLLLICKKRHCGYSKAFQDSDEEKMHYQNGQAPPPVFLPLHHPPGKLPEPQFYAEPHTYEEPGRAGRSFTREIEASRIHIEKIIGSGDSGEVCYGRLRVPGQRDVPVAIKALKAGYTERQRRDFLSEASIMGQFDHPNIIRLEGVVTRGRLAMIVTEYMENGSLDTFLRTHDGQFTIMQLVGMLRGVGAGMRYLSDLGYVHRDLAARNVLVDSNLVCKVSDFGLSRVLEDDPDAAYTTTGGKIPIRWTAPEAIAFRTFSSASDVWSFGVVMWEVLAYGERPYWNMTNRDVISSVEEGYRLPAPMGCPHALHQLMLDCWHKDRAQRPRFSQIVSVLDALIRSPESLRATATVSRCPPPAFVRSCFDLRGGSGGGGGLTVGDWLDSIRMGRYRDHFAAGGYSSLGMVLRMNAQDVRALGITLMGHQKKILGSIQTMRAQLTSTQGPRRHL

[2] = target: DNA-dependent protein kinase catalytic subunit (Homo sapiens) (UniProt P78527); experiment: Selectivity interaction (Kinase panel (Z-LYTE Assay)) EUB0001632a PRKDC; details: at 10 µM
[3] = target: Serine/threonine-protein kinase PAK 4 (Homo sapiens, UniProt O96013); details: at 10 µM
[4] = target: T2, Serine/threonine-protein kinase 3 (Homo sapiens) (UniProt Q13188); experiment: Selectivity interaction (ActivX KiNativ screen (ex vivo kinase selectivity in human PBMCs)) EUB0001619a STK3; assay type: cell-based; details: PBMC, at 1 µM
T2 sequence (whole entry): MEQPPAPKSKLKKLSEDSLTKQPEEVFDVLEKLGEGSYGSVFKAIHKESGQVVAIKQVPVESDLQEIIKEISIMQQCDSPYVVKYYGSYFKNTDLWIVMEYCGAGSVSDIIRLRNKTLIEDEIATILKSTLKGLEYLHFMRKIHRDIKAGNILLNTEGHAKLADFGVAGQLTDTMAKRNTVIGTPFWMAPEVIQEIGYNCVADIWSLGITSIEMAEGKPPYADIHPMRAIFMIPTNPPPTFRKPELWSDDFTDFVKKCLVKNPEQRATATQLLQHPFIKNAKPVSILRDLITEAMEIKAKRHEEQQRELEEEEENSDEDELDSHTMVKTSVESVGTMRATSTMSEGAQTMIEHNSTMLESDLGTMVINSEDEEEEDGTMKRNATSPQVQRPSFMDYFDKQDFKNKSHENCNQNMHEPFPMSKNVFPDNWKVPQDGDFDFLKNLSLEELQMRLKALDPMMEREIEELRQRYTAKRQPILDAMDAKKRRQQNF

[5] = target: T3, Aurora kinase A (Homo sapiens) (UniProt O14965); experiment: Selectivity interaction (ActivX KiNativ screen (kinase selectivity in THP-1 cell lysates)) EUB0000639a STK6; assay type: subcellular; details: lysate
T3 sequence (whole entry): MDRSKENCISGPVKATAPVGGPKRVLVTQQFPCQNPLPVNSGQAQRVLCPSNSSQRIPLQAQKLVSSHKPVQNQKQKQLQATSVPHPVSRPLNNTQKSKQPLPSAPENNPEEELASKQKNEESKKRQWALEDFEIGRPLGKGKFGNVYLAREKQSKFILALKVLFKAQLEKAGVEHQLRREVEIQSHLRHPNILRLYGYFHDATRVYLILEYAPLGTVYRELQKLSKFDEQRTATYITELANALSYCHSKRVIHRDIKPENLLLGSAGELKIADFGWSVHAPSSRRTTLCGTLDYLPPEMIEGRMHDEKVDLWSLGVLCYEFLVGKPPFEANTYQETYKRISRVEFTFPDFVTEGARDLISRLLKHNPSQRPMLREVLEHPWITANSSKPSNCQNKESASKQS

[6] = target: Phosphatidylinositol 3-kinase catalytic subunit type 3 (Homo sapiens, UniProt Q8NEB9); experiment: Selectivity interaction (ActivX KiNativ screen (kinase selectivity in THP-1 cell lysates)) EUB0000639a PIK3C3; assay type: subcellular; details: lysate, at 0.2 µM

Sequence of Serine/threonine-protein kinase PAK 4 (O96013 whole entry, looked up): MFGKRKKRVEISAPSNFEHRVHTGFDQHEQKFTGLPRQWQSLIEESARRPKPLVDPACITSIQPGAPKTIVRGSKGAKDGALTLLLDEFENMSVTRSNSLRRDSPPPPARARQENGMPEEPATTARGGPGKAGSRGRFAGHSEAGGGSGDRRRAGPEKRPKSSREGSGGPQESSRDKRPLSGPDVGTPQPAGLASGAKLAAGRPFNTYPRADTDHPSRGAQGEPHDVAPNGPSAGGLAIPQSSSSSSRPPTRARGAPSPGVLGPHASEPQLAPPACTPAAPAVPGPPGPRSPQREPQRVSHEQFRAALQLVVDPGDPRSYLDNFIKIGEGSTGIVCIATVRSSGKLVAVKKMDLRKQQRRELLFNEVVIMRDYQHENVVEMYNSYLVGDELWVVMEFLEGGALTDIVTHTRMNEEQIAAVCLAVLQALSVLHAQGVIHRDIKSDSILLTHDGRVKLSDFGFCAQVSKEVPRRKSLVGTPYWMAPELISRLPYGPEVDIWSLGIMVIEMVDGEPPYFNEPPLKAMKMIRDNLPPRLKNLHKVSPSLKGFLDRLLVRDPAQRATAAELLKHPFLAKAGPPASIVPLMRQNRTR
Sequence of DNA-dependent protein kinase catalytic subunit (Homo sapiens) (P78527 whole entry): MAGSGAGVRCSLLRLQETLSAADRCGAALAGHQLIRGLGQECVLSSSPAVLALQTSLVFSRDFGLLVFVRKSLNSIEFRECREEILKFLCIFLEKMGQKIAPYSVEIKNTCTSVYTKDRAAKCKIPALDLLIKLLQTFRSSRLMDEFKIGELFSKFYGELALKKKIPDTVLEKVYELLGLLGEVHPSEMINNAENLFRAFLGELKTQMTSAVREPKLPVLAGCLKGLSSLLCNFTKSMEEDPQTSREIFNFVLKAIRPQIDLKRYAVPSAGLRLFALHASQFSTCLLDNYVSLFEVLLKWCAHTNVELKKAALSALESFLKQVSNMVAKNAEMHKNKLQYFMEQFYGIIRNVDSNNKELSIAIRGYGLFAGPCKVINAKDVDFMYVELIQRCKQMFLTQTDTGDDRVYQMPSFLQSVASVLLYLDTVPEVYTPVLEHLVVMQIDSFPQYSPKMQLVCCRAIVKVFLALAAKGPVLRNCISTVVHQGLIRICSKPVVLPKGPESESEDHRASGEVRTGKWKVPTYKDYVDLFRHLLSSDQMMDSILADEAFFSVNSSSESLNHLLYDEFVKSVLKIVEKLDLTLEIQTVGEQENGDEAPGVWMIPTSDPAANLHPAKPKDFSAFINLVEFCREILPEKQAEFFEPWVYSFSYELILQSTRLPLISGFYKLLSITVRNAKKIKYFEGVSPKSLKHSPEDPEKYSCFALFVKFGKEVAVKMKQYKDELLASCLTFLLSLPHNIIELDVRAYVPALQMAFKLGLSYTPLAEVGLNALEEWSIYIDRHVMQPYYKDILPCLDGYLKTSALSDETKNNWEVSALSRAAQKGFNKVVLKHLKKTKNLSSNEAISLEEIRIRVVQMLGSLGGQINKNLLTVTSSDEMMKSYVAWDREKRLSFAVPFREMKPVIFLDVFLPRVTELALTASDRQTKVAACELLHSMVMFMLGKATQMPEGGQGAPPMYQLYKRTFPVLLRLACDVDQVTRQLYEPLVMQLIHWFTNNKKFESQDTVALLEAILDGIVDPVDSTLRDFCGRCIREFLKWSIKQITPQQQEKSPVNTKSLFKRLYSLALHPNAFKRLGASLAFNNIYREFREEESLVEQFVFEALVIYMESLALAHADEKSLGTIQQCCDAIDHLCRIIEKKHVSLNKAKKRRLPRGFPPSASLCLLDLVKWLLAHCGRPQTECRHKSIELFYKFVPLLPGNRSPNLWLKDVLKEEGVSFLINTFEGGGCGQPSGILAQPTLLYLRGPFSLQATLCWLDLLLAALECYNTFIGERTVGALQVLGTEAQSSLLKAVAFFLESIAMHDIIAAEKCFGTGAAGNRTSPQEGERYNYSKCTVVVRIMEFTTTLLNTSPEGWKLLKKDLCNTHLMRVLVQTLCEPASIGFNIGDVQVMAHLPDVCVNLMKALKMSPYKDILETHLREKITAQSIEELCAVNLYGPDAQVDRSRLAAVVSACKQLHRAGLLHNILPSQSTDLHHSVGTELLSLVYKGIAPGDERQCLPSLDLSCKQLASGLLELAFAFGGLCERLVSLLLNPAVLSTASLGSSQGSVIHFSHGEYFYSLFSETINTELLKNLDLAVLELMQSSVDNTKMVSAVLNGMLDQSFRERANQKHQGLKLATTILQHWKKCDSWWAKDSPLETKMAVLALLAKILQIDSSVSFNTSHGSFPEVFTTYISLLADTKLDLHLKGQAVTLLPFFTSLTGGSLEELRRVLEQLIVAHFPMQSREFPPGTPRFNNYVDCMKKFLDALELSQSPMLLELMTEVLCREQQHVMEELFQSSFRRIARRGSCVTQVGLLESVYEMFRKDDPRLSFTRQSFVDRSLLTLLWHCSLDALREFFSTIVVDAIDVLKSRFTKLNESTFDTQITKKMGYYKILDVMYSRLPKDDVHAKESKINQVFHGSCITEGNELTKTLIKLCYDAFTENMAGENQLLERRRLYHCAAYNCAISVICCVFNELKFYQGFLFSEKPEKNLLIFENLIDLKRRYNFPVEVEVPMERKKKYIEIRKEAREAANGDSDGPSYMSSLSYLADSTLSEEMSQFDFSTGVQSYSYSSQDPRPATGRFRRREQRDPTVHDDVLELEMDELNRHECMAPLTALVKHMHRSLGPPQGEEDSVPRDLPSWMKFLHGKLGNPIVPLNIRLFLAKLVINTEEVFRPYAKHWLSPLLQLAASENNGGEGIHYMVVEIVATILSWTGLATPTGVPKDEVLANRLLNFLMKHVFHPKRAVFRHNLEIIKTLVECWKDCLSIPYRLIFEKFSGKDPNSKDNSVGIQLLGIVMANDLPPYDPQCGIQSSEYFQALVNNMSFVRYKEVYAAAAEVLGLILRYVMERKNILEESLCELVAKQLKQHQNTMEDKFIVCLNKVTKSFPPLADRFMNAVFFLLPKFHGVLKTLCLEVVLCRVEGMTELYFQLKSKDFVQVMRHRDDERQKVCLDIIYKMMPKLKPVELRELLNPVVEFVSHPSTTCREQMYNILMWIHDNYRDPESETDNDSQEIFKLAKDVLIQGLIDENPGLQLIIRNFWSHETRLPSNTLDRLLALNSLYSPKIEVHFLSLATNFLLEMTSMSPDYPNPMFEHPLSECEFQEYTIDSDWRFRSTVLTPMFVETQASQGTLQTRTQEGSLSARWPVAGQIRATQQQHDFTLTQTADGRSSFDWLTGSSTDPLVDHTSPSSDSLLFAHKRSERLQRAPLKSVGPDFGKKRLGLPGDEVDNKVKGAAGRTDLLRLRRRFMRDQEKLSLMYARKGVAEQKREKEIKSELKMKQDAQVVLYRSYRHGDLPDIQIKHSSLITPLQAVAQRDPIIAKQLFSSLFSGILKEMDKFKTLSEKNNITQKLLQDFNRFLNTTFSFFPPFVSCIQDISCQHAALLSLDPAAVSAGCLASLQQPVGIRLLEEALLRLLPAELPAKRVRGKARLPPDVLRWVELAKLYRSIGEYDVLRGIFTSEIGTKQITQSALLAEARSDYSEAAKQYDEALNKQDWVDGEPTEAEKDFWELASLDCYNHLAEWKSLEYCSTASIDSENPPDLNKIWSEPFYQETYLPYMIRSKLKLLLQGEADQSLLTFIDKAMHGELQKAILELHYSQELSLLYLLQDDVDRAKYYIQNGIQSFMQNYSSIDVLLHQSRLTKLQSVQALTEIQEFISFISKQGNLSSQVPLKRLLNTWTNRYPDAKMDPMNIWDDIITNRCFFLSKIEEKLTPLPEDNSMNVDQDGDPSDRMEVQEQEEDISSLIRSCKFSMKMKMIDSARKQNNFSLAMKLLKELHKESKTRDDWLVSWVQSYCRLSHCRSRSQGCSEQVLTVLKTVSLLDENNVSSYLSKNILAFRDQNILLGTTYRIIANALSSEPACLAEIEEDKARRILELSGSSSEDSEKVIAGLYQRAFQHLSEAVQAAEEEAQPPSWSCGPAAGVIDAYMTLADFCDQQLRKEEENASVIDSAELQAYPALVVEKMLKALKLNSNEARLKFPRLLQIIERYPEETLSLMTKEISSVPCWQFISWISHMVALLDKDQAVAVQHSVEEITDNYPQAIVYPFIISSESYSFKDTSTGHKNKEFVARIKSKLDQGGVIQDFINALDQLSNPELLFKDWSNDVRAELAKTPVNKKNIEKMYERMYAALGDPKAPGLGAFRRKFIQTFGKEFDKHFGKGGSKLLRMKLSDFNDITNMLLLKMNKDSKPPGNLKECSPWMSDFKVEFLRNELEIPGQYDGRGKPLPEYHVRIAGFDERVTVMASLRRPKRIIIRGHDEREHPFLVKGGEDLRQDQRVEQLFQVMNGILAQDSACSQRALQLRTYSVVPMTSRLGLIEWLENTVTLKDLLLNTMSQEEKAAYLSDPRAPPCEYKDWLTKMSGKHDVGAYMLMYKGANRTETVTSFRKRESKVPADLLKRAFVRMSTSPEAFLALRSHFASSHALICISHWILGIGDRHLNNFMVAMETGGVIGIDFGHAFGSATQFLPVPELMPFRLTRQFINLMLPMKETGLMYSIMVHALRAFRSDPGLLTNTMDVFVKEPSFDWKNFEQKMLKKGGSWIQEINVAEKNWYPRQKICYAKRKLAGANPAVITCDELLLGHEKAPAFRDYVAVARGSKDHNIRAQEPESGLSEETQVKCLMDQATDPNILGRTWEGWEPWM

With `COc1cc(N(C)c2ccnc3ccc(C(F)(F)F)cc23)cc(OC)c1OC` the % binding [1] was 94%.

Work on `Cn1cc(-n2cnc3c(NCc4nc5cc(Cl)c(Cl)cc5[nH]4)nc(N4CCOCC4)nc32)cn1` yielded a % of control [2] of 11.8%.

For `Cc1cc([C@@H](C)Nc2ccccc2C(=O)O)c2nc(N3CCOCC3)cc(=O)n2c1` [AZD-6482], the % of control [3] was 100%.

`N#Cc1cccc(-c2c[nH]c3ncnc(N4CCOCC4)c23)c1` showed a % of inhibition [4] of 71%.

For `CC[C@@H]1[C@H](F)C(=O)N[C@@H]1COc1nccc2cc(C(N)=O)c(OC)cc12` [ZIMLOVISERTIB], the % of inhibition ([5]; at 0.01 µM) was -0.7%, the % of inhibition ([5]; at 0.04 µM) was -2.4% and the % of inhibition ([5]; at 0.2 µM) was 2.8%. For the same molecule, the % of inhibition ([5]; at 1 µM) was 26.7%, the % of inhibition ([5]; at 5 µM) was 59.9% and the % of inhibition [6] was -20.4%.
